The experiment relates to Tumor-initiating cells (NB12). Briefly: IC50 determination, alamarBlue cell survival/growth. It counts as cell-based, human. Conditions: 10 serial dilutions 5 μM to 9 nM. The protocol:
Tumor-initiating cells and normal cells were treated with 10 serial dilutions of compounds (5 μM to 9 nM). […] (FS90=normal cells; NB12=tumor-initiating cells).
Tumor-initiating cells (NB12) and normal cells (FS90) were treated with 10 serial dilutions of compounds ranging from 5 μM to 9 nM. […] IC50 values for NB12 are given above each plot.
IC50 values for NB12 and FS90 are given beside each plot.
For each cell type, cells were passaged 5 days prior to screening.
A general note: Alamar Blue is a resazurin reagent that responds to reducing activity.

pIC50: −log10 of the molar value.

Among the data in US7632678B2, “Cancer stem cells and uses thereof” (The Hospital for Sick Children, priority 2005, dated 2009) are IC50 values, retold here.

The pIC50 is −log10 of the IC50, conventionally taken in molar units. Higher therefore signals a low IC50.

For the substance Dequalinium analog, C-14 linker, the pIC50 is 5.95.
